According to patent publication US8030442B2, “Treatment of injury to the brain by inhibition of acid sensing ion channels” (priority 2004, dated 2011):
“Also recorded” adds a separate entry of the source.

Legend:
[1] = target: T1, ASICs in cortical neurons (Mus musculus, UniProt Q6NXK8); assay: Ca2+-mediated acid-activated current in cortical neurons (10 mM Ca2+ as only charge carrier); assay type: cell-based; settings: pH 6.0, -60 mV, n=6, read-out: peak amplitude of Ca2+-mediated current, % of control
T1 construct: indicating significant Ca^2+ permeability of ASICs in the majority of cortical neurons; endogenous in cells; host or cells: primary cultured mouse cortical neurons
T1 sequence (Q6NXK8 1-526): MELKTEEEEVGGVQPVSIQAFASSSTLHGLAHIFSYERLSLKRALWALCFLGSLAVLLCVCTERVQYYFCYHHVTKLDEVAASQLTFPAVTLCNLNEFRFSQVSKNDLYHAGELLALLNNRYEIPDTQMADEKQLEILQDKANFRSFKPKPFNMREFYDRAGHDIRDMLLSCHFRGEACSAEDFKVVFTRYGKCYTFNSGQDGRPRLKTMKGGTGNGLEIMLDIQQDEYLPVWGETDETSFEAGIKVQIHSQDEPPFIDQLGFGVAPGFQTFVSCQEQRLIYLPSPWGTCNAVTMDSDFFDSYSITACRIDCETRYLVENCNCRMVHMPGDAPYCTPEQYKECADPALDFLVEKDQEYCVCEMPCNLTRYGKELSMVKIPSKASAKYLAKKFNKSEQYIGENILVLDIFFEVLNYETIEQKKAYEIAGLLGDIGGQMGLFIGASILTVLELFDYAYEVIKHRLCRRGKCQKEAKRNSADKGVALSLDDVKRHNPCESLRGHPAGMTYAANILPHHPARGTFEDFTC

[2] = system: cortical neurons; assay type: cell-based, mouse; settings: with MK801, CNQX, nimodipine, ω-conotoxin MVIIC; n=6-8
[3] = system: cortical neurons cultured from ASIC+/+ and ASIC1-/- mice; assay: LDH release in neurons cultured from ASIC+/+ and ASIC1-/- mice; assay type: cell-based, mouse
Description: Following anesthesia with halothane, cerebral cortices were dissected from PI ASIC1^+/+ and ASIC1^−/− mice and incubated with 0.05% trypsin-EDTA for 10 min at 37° C. Tissues were then triturated with fire-polished glass pipettes and plated on poly-L-ornithine-coated 24-well plates or 25×25 mm glass coverslips at a density of 2.5×10^5 cells per well or 10^6 cells per coverslip. Neurons were cultured with MEM supplemented with 10% horse serum (for E16 cultures) or Neurobasal medium supplemented with B27 (for P1 cultures) and used for electrophysiology and toxicity studies after 12 days. Glial growth was suppressed by addition of 5-fluoro-2-deoxyuridine and uridine, yielding cultured cells with ˜90% neurons as determined by NeuN and GFAP staining (data not shown).
Cells were treated with either pH 7.4 or 6.0 ECF for 1 hr. LDH release was measured 24 hr after acid incubation. […] Background absorbance at 620 was subtracted.

[4] = system: COS-7 cells stably transfected with ASIC1a; assay: Acid-induced LDH release in ASIC1a-transfected COS-7 cells; assay type: cell-based; settings: 100 μM, 1 hr pH 6.0, 24 hr
Description: COS-7 cells, a cell line commonly used for expression of ASICs due to its lack of endogenous channels (Chen et al. 1998; Immke and McCleskey 2001 and Escoubas et al. 2000), were cultured in MEM with 10% HS and 1% PenStrep (GIBCO). At ˜50% confluence, cells were cotransfected with cDNAs for ASICs and GFP in pcDNA3 vector using FuGENE6 transfection reagents (Roche Molecular Biochemicals). DNA for ASICs (0.75 μg) and 0.25 μg of DNA for GFP were used for each 35 mm dish. GFP-positive cells were selected for patch-clamp recording 48 hr after transfection. For stable transfection of ASIC1a, 500 μg/mL G418 was added to culture medium 1 week following the transfection. The surviving G418-resistant cells were further plated and passed for >5 passages in the presence of G418. Cells were then checked with patch-clamp and immunofluorescent staining for the expression of ASIC1a.
To provide additional evidence that activation of ASIC1a is involved in acid injury, acid injury of nontransfected and ASIC1a transfected COS-7 cells as described above was studied. Following confluence (36-48 hr after plating), cells were treated with either pH 7.4 or 6.0 ECF for 1 hr.
LDH release was measured 24 hr after acid incubation. […] Background absorbance at 620 was subtracted.

[5] = target: TRPM7 channels (Homo sapiens, UniProt Q96QT4); assay: TRPM7 conductance, current-voltage relationship; assay type: cell-based; settings: 100 μM or 500 μM, ~10 min
Description: In FIG. 36, after a stable current-voltage relationship (I-V curve) was recorded, amiloride at either 100 μM or 500 μM was perfused to the cell for ˜10 min. The I-V curve in the presence of amilolide was then generated (FIG. 36 A). Similarly in FIG. 36B, after a stable I-V curve was recorded, PcTX venom at 300 ng/ml was perfused to the cell for ˜10 min. The I-V curve in the presence of PcTX venom was then generated.

[6] = system: rat model of transient focal ischemia; assay type: in vivo; settings: n=11
[7] = system: hippocampal slice; assay: Seizure-like activity in hippocampal slices in magnesium-free aCSF; settings: 100 μM for thirty minutes
Description: Hippocampal slices were bathed in magnesium-free artificial cerebrospinal fluid (aCSF). The absence of magnesium in the fluid makes neurons in the slice susceptible to seizure-like electrical activity. Accordingly, the hippocampal slice maintained in magnesium-free fluid provides a model system for epilepsy. Electrical potential was measured prior to addition of any compounds, after treatment with PcTX venom followed by electrical stimulation, after PcTX venom was removed, with amiloride, during transient removal of kyneuric acid, and kainic acid to promote seizure activity in the mice with or without injection of PcTX venom.
The three graphs in panel 23A show the electrical potential measured from the same hippocampal slice after electrical stimulation near the beginning of each voltage trace, to promote depolarization followed by re-polarization (a peak(s) in the voltage trace). Electrical stimulation of a control hippocampal slice, bathed in fluid with a physiological magnesium level, produced a single peak in the voltage trace (not shown here). In contrast, as shown here in the first graph of panel 23A, electrical stimulation of a hippocampal slice maintained in aCSF without magnesium produced a series of individual peaks, indicative of seizure-like activity.

[8] = system: cultured hippocampal neurons; assay: Seizure-like electrical activity of cultured hippocampal neurons on kyneuric acid removal; assay type: cell-based; settings: during kyneuric acid removal
Description: The neurons were grown in the presence of kyneuric acid. Removal of the kyneuric acid promoted spontaneous, sustained electrical activity by the neurons.
The magnitude and periodicity of the peaks in the voltage traces changed upon exposure to amiloride.

[9] = system: cortical neurons; assay: Acid-induced LDH release in cortical neurons

Sequence of TRPM7 channels (Q96QT4 whole entry, the tested form may be a part): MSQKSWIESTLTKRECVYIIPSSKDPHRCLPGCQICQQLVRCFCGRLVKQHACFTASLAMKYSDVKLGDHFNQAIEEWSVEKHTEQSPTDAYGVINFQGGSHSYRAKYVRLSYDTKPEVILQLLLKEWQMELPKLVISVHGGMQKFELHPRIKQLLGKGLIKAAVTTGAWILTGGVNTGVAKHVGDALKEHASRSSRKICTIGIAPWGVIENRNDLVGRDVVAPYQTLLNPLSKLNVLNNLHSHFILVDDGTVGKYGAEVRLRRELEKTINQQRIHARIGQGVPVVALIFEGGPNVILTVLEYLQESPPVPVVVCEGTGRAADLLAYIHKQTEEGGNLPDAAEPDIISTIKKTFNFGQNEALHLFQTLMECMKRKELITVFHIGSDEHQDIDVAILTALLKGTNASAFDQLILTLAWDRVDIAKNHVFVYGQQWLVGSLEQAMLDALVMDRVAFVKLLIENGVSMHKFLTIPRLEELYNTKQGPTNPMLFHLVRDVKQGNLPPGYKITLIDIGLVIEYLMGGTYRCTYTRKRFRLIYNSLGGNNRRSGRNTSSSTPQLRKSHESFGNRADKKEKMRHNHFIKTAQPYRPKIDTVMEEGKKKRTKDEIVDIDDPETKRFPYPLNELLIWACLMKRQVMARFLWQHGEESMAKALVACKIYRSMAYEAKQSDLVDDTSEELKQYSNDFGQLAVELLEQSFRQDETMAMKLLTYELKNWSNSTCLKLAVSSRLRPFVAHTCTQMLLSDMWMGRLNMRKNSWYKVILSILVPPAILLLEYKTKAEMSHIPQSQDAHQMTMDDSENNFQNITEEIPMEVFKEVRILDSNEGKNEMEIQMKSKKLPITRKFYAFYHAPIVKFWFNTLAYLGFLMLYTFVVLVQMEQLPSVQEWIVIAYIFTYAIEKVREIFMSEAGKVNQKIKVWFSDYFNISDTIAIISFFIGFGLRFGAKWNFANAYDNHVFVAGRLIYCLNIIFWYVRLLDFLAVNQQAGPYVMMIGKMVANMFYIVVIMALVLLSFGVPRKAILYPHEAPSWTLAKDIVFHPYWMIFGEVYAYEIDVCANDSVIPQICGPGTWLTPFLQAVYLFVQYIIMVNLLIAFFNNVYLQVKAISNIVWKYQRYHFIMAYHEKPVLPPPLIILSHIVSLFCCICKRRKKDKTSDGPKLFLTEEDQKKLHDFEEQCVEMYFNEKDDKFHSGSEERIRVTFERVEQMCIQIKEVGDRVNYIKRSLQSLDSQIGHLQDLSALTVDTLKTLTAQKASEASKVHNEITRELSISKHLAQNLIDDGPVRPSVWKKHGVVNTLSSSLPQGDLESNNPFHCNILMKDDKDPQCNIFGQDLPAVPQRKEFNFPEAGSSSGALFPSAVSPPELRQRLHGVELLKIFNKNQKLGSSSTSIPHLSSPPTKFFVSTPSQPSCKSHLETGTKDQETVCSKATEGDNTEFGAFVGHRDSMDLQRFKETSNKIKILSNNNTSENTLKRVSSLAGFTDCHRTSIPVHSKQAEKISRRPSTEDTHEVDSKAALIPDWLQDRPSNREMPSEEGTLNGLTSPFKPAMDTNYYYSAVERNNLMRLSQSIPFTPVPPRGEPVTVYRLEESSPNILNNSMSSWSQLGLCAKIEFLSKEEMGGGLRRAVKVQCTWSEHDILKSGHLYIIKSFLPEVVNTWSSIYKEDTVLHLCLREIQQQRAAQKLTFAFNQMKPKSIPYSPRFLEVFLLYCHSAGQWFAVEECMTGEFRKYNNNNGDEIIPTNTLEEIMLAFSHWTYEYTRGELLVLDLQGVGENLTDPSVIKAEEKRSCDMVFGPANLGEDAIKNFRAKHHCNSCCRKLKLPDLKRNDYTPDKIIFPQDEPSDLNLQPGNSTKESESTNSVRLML

N=C(N)NC(=O)c1nc(Cl)c(N)nc1N [amiloride]
remaining activity at 100 µM [1]: 26% | peak and sustained acid-induced increases in [Ca2+]i [2]: largely inhibited | acid-induced LDH release in ASIC+/+ neurons ([3]; 1 hr pH 6.0, n=8-12): reduced | effect on acid-induced LDH release in ASIC1-/- neurons ([3]; knockout of the ASIC1 gene, n=8): eliminated the effect | acid-induced LDH release [4]: inhibited acid-induced LDH release | conductance of TRPM7 channels [5]: had no effect; also recorded: lack of blockade | infarct volume [6]: 229.7±41.1 mm^3 | peaks in voltage trace after electrical stimulation [7]: reduced both the number and amplitude of peaks | seizure-like electrical activity of neurons [8]: blocked the seizure-like electrical activity | LDH release at 24 hr, % of maximal ([9]; 100 μM, 10 min before and during 1 hr pH 6.0, without blocker 45.3%±3.8%): 31.1%±2.5% | LDH release on prolonged incubation ([9]; alone, e.g. 5 hr, n=8): increased LDH release | baseline LDH release ([9]; pH 7.4 ECF for 1 hr): did not affect baseline LDH release
